In patent US5976523A, “Method for healing compromised tissues using pyrimidine derivatives” (Mitsui Pharmaceuticals, Inc., priority 1995, dated 1999):
Structures can show the parent of a compound that is named as a salt.

Assays:
[1] = test system: PDGF-A mRNAs; assay: Polysome distribution (translation) of PDGF-A mRNAs in rat SMCs; assay type: cell-based
Method: SMCs were prepared following the method proposed by Ross and Klebanoff in "J. Cell. […] A rat thoracic aorta was excised. After the tunica externa was peeled off, the tunica media and the tunica intima were minced into 2-3 mm^2. The minced sections were placed standstill in a 25-cm^2 flask which contained Waymouth's MB 752/1 medium containing 10% FBS and 80 ng/ml of gentamycin (product of Schering-Plough Corp.), followed by incubation at 37° C. for 2 to 3 weeks in the presence of 5% carbon dioxide gas (primary culture). The same volume of a trypsin-EDTA solution was added to the flask. After the sections were treated at 37° C. for 5 minutes to peel off cells, the cells were diluted with 10% FBS-Waymouth's MB 752/1 medium and then subcultured (second generation). Subculture was successively conducted likewise whenever the SMC became confluent. In the following experiments, the cells from the 5th generation to the 12th generation were employed. After reach in confluence of cells, the cultured SMCs were cultured for 2 days in a serum-free medium to avoid influence of serum. The SMCs were then added with thrombin (1.0 U/ml) or serotonin (5 μM), followed by incubation at 37° C. for 6 hours under which bring about induction of PDGF-A mRNAs at the maximum. To prevent dissociation of ribosomes and mRNAs, cycloheximide (100 μg/ml) was added 5 minutes before cells were collected. […] Biol. Chem.", 267, 508 ff, 1992 with slight modifications. The cells, which had been collected by the treatment with trypsin, were washed with PBS containing cycloheximide (100 μg/ml). A cell precipitate was then added with 500 μl of a high-salt lysis buffer (20 mM Tris-HCl pH 7.5, 250 mM NaCl, 5 mM MgCl2, 0.1% Noni det P-40, 0.2% DOC) for homogenization. The homogenate was centrifuged under 12,000×g at 4° C. for 10 minutes. The resulting supernatant was added with 67 μl of a heparine mix (7.4 mg/ml heparine, 1.1M NaCl, 15 mM DTT and RNasin). 200 μl of the extract were layered on 5 ml of 0.5-1.25M linear sucrose gradient (which contained 20 mM Tris-HCl pH 7.4, 10 mM NaCl, 3 mM MgCl2), followed by centrifugation under 45,000 rpm for 90 minutes in a "Hitachi […]". While monitoring the absorbance at 260 nm, ten (10) fractions were obtained. […] Subsequent to incubation at 37° C. for 1 hour, each fraction was extracted once with 1/2 volume of phenol, twice with 1/2 volume aliquots of chloroform, and once with the equal volume of chloroform, whereby proteins were removed. The water layer was added with glycogen (20 μg/ml) as a coprecipitant and then with 0.03M of sodium acetate, and RNAs were caused to precipitate with 2 volumes of ethanol. After RNAs were incubated at 65° C. for 5 minutes in a solution containing 60% of formamide, 5.9% of formaldehyde and the equal volume of MOPS buffer (10 mM MOPS pH 7.0, 4 mM NaOAc, 0.5 mM EDTA), electrophoresis was conducted across 1.2% agarose gels containing the equal volume of MOPS buffer so that RNAs were. isolated. After the gel was washed with 20 volumes of SSC, RNAs were blotted overnight to a Gene Screen Plus membrane by the capillary method. Fixing of the RNAs was conducted by exposing them for 1 minute at a distance of 10 cm from […]. Using a "QuickHyb Hybridization Solution" (product of Strategene Ltd.), hybridization was conducted following the instruction manual attached to the solution. Results of autoradiography were quantitated with reference to the NIH Image. […]

[2] = test system: skin or muscle cut; assay: Skin/muscle cut-suture rat model; assay type: in vivo; settings: scanning electron microscope; indicative of the possibility
From the text: As a feature specific to this model, collagen fibers form a plate-like structure so that they cross at right angles with muscle fibers, and macrophages accumulate on the plate-like structure. This plate-like collagen is considered to serve in such a way that it prevents detachment or fraying of both cut ends of muscle fibers and assists formation of an anastomosis.

[3] = test system: TMK1 cells; assay: TMK1 cell migration in Boyden's chamber; assay type: cell-based; settings: 4 hours
Method: TMK1 cells, low-differentiating epithelial cells, were treated with trypsin. […] The culture medium in the lower well was then subjected to fixing and staining, and cells which had migrated therein were counted. Experiments were conducted concurrently in three chambers.
Each value will be presented as a mean ±S.D. and with respect to each compound, numbers of cells will be presented in the order of a) control, b) each pyrimidine compound (whose concentration will be specifically indicated), c) 10 ng/ml of EGF, and d) a mixed solution of each pyrimidine compound + EGF.

[4] = test system: CAMs (chorioallantoic membranes); assay: Angiogenesis on chorioallantoic membranes (CAM); assay type: in vivo, chick; settings: for number of new blood vessels (M±SE): day 3
Method: For a bFGF, various assay systems assessing the angiogenesis activity of the bFGF as an index are usable. The shells of chick embryos are fenestrated centrally corresponding to the air spaces thereof, whereby the chorioallantoic membranes (CAMS) are exposed. Solutions of the bFGF and a test medicament at various concentrations were applied onto the respective CAMs. Incubation was continued. Several days later, the degrees of angiogenesis were investigated under a microscope. This method is preferably employed. […] The test medicament is therefore found to be useful for the reduction of a time required for the construction of a skin-equivalent tissue. […] Also with respect to a VEGF, its angiogenesis activity can be assayed in a similar system.
The shells of eggs on the 10th day after fertilization were fenestrated centrally corresponding to air spaces thereof, whereby CAMs (chorioallantoic membranes) were exposed. A nylon film in the form of a square of 3 mm in side was placed over the CAM, and onto the nylon film, a solution of bFGF as a growth and/or differentiation factor or the pyrimidine compound according to the present invention was dropped in an amount of 8 ul. Incubation was continued at 38° C. On the 72nd hour, the eggs were moved to a cool place controlled at 4° C. After the eggs were left over for 2 to 3 hours there, the degree of angiogenesis in each egg was investigated under a microscope. The angiogenesis was determined based on the number of radial blood vessels equal to or larger than 0.1 mm in diameter. Onto the nylon disk placed over the CAMS, 1, 10, and 100 ng/ml solutions of recombinant human bFGF (product of Genzyme Corporation) in physiological saline and 0.01 to 1 mM solutions of the individual pyrimidine compound in physiological saline were applied singly or in combination.

Question: `CN1Cc2nc(N3CCNCC3)ncc2C1=O` [Compound B, 2-piperazino-6-methyl-5-oxo-5,6-dihydro(7H)pyrro[3,4-d]pyrimidine maleate] was tested. Which “translation state of 1.3 kb PDGF-A mRNAs” value ([1]; compound) did it give?
Answer: Its value is “in a translated form”.

Question: What about the “translation state of 1.7 kb PDGF-A mRNAs” value ([1]; compound, serum-free medium) of the same compound?
Answer: Its value is “converted into a translated form”.

Question: And the “translation state of PDGF-A mRNAs” value ([1]; thrombin + compound)?
Answer: The value was “converted into a translated form”.

Question: And the accumulation of macrophages [2]?
Answer: The accumulation of macrophages was “effectively acts for the promotion of the formation of such plate-like collagen and the accumulation of macrophages”.

Question: What about the “formation of plate-like collagen” value [2] of the same compound?
Answer: The value was “effectively acts for the promotion of the formation of such plate-like collagen”.

Question: What about the “numbers of cells counted (migrated), mean ±S.D.” value ([3]; compound 1 mM + EGF 10 ng/ml) of the same compound?
Answer: The value was 111.2±8.0.

Question: What about the “numbers of cells counted (migrated), mean ±S.D.” value ([3]; compound alone, 1 mM) of the same compound?
Answer: The value was 7.4±3.0.

Question: And the “number of new vessels (M±SE)” value ([4]; bFGF (concentration not stated) + 0.01 mM compound)?
Answer: Its value is 8.1±1.1.

Question: And the “number of new vessels (M±SE)” value ([4]; bFGF (concentration not stated) + 0.1 mM compound)?
Answer: Its value is 8.5±0.8.

Question: What about the “number of new vessels (M±SE)” value ([4]; bFGF (concentration not stated) + 1 mM compound) of the same compound?
Answer: Its value is 9.3±0.5.

Question: What about the “angiogenesis ability of bFGF” value ([4]; bFGF + compound) of the same compound?
Answer: Its value is “synergistically enhanced”.

Question: And the “number of new blood vessels (M±SE)” value ([4]; compound alone 0.01 mM)?
Answer: The value was 3.5±0.9.

Question: What about the “number of new blood vessels (M±SE)” value ([4]; compound alone 0.1 mM) of the same compound?
Answer: The value was 3.4±0.5.

Question: What about the “number of new blood vessels (M±SE)” value ([4]; compound alone 1 mM) of the same compound?
Answer: The value was 4.4±0.7.
